Data from patent publication US9809586B2, “Inhibitors of collagen prolyl 4-hydroxylase” (WISCONSIN ALUMNI RESEARCH FOUNDATION, priority 2015, dated 2017).
Each block holds one molecule with its values, some of them ahead of it.

Experiments:
[1] = conjugate acid of pyridine (bipy) or the nonpyridyl ring; cited from earlier work
[2] = Estimate of pKa by potentiometric titration; assay type: physicochemical; details: water; conjugate acid, estimated by titration of the entire compound
Protocol: The pKa value of biheteroaryl compounds was estimated with potentiometric titration. Compounds (5-10 mM) were dissolved in water and the pH was adjusted to ˜12 by adding 10 M NaOH. The pH of the solution was recorded with an Accumet™ XL500 pH meter equipped with an Orion 912600® pH electrode from Thermo Fisher Scientific while titrating the solution with HCl (1 M or […], as necessary) until a pH value of ˜1.75 was achieved. Titration curves were prepared by plotting the solution pH versus the volume of 1 M HCl added, and pKa values were estimated from derivative plots of the titration curves using Prism software.

[3] = Assay of Fe(II)-affinity for biheteroaryl ligands (Fe20-EC50 titration, spectrophotometry); assay type: physicochemical
Protocol: A library of biheteroaryl compounds (FIG. 2) was prepared and evaluated them as iron chelators in vitro. The library was assembled either from commercial vendors (pypyr and pyim) or by synthesis using palladium-catalyzed cross-coupling reactions (pypyraz, pypyrid, pyox, and pythi). To evaluate the iron affinity of these compounds in vitro, titration experiments were performed to determine the half-maximal concentration required to form a complex with 20 μM Fe(II) at pH 7.0.
The affinity of biheteroaryl ligands for Fe(II) was determined comparatively by measuring the half-maximal concentration (EC50) required for binding 20 μM Fe(II) (Fe20-EC50) in sodium phosphate buffer at pH 7. Stock solutions of ligands were prepared in either water for high affinity ligands (typically Fe20-EC50<1 mM) or DMSO for low affinity ligands (typically Fe20-EC50>1000 μM). Stock solutions of FeSO4 were prepared in H2O and used within 3 hours of preparation. […] For high affinity ligands, solutions were allowed to equilibrate for 15 min, after which the absorbance was recorded at the λmax for the complex under study. For most low affinity ligands, the corresponding Fe(II) complexes were unstable and observed to dissociate over time. Therefore, the absorbance value was determined within 30 s of mixing, where the absorbance was measured at the λmax for the complex under study. Complexes with pyox were not observed under these conditions. Absorbance values were corrected by subtracting the absorbance value in the absence of ligand. Dose-response curves were generated for each ligand by plotting the absorbance versus the log of the ligand concentration. Fe20-EC50 values for each ligand were interpolated from the dose-response curves by non-linear regression using the sigmoidal dose-response function in Prism. All experiments were performed in triplicate.

human CP4H1 = biological target: T1, human CP4H1 (Homo sapiens, UniProt P13674); assay: Assay of human CP4H1 activity in the presence of inhibitors; assay type: biochemical; details: 10 μM compound, 50 μM FeSO4
T1 construct: made in house; host or cells: Origami B(DE3) Escherichia coli
Protocol: The catalytic activity of human CP4H1 was assayed as described previously.^35 Briefly, activity assays were carried out at 30° C. in 100 μL Tris-HCl buffer, pH 7.8, containing human CP4H1 (100 nM), inhibitor (0-500 μM), substrate (dansylGlyProProGlyOEt, 500 μM), FeSO4 (50 μM), BSA (1 mg/mL), catalase (0.1 mg/mL), sodium ascorbate (2 mM), DTT (100 μM), and α-ketoglutarate (100 μM). Reactions were pre-incubated with or without inhibitor for 2 min at 30° C., after which the reaction was initiated by the addition of α-ketoglutarate. After 15 min, reactions were quenched by boiling for 45 s and centrifuged at 10,000 g. The supernatant (20-50 μL) was injected into a Nucleodur® C18 Gravity reversed-phase column (4.6×250 mm, 5 μm particle size) from Macherey-Nagel (Bethlehem, Pa.). The column was eluted at 1 mL/min with a gradient (20 min) of aqueous acetonitrile (20-45% v/v) containing 0.1% v/v TFA. The absorbance of the eluent was monitored at 289 nm. All assays were performed in triplicate. Data are reported as activity relative to control reactions lacking inhibitor, where catalytic activity is determined from the percent conversion of substrate to product. Dose-response curves were generated for each inhibitor by plotting the relative activity versus the log of the inhibitor concentration. IC50-values for each inhibitor were interpolated from the data by non-linear regression using the sigmoidal dose-response function available in Prism.

HEK293T cells = assay: Effect on iron metabolism (immunoblots for ferritin, TfR, HIF-1α) in HEK293T cells; assay type: cell-based, human; details: for Level of TFR, HIF-1α, or ferritin: HEK cells, diethyl pyimDC at low levels; for Iron deficient phenotype: HEKs, 100 μM, details in Vasta et al. 2015
Protocol: (§1) MDA-MB-231 or HEK293T cells were plated at 50,000 cells/well into 12-well plates and grown to confluence (˜24 h) as described in Section X. The cells were washed, and the medium was replaced with 1.0 mL of serum-free medium. Stock solutions of all test compounds were prepared at 100× in DMSO and added to a final concentration of 1× (0.1-0.5 mM). After addition of the test compound or DMSO vehicle, cells were incubated for 24 h. The cells were then washed with 100 μL MPER solution from Thermo Fisher Scientific (Waltham, Mass.) and collected. Protein concentrations were determined by BCA assay (Thermo Fisher Scientific), and samples corresponding to 40 μg total protein were analyzed by immunoblot.
(§2) For all immunoblot analyses, protein samples where boiled in SDS-PAGE buffer, separated by electrophoresis through a Tris-glycine SDS-PAGE gel from Bio-Rad Laboratories (Hercules, Calif.), and subsequently transferred to a PVDF membrane for immunoblotting. All primary antibodies were used at the working dilution specified by the manufacturer. Primary antibodies were visualized using a complementary secondary antibody fused to horseradish peroxidase (HRP), with detection of HRP by chemiluminescence, imaging using an ImageQuant LAS 4000 (GE Healthcare), and quantification by densitometry (ImageJ software). The anti-rabbit antibody from Promega and the anti-mouse antibody from Abbiotec (San Diego, Calif.) were used at the working dilution specified by the manufacturer.
(§3) For investigations of iron metabolism, protein samples (40 μg) were separated by SDS-PAGE through a 12% w/v acrylamide gel, and blots were probed with primary antibodies to human ferritin (rabbit monoclonal) from Abcam (Cambridge, Mass.), human transferrin receptor (mouse monoclonal) from Invitrogen, human HIF-1α (mouse monoclonal) from BD Biosciences, and human β-actin (rabbit monoclonal) from Cell Signaling Technology (Danvers, Mass.). Quantifications were normalized to the signal from β-actin, after which treated samples were compared to vehicle-treated controls.

MDA-MB-231 cells [4] = assay: Cytotoxicity assay (MTS); assay type: cell-based; details: MDA-MB-231, 24 h; higher than aqueous solubility limit
Protocol: The toxicity of esterified biheteroaryl compounds for human breast cancer cells was evaluated with the CellTiter 96® AQueous One Solution Cell Proliferation Assay (MTS) from Promega (Madison, Wis.). Briefly, MDA-MB-231 cells grown as described in Section X were plated at a concentration of 5,000 cells/well in a clear 96-well plate. The cells were allowed to adhere for 4 h, after which the medium was removed and discarded. Fresh medium was added and the cells were treated with varying concentrations of the test compound at 37° C. for 24 h. The medium was removed, and cells were washed with Dulbecco's PBS. The MTS reagent was added at a ratio of 1:5, and the cells were incubated at 37° C. for 2 h before measuring the absorbance at 490 nm. The average absorbance was measured in triplicate for each concentration tested, and the entire experiment was repeated in duplicate. The percentage of viable cells was determined by normalizing to a PBS control (100% viable), and a H2O2 control (0% viable). For all of the compounds tested, the LD50-value could not be measured due to its being higher than the aqueous solubility limit: diethyl bipy55′DC, LD50>100 μM; diethyl pyimDC, LD50>1000 μM; diethyl pythiDC, LD50>500 μM.

[5] = tested on: MDA-MB-231 breast cancer cells; assay: Effect on iron metabolism (immunoblots for ferritin, TfR, HIF-1α) in MDA-MB-231 cells; details: for Concentration at which no iron-deficient phenotype is observed / Iron-deficiency phenotype of treated cells: MDA-MB-231, 24 h; for Iron-deficiency phenotype of treated cells: EDHB 500 μM, diethyl pythiDC up to 500 μM; for Iron deficient phenotype: MDA-MB-231 (231s), 100 μM, details in Vasta et al. 2015
Protocol: as §1, §2, §3

P4HA1 = assay: Effect on P4HA1 levels (immunoblot); assay type: cell-based, human; details: MDA-MB-231
Protocol: For investigations of P4HA1 levels, protein samples were treated and quantified as described above for iron metabolism except that the blots were probed with primary antibodies to human P4HA1 (rabbit polyclonal) from Thermo Fisher Scientific and human β-actin.

MDA-MB-231 cells [6] = assay: Effect on secretion of type I collagen into conditioned media; assay type: cell-based, human; details: for Efficacy on collagen secretion compared with diethyl bipy55′DC: MDA-MB-231; for Level of secreted type I collagen: MDA-MB-231, 48 h, conditioned media
Protocol: For investigations of collagen secretion, protein samples were separated by SDS-PAGE through a 7.5% w/v acrylamide gel. Blots were first stained for total protein using Ponceau S, after which they were probed with a primary antibody to human type-I collagen (α1) (rabbit polyclonal) from Novus Biologicals (Littleton, Colo.).
After the addition of a test compound or vehicle (DMSO), cells were incubated for 48 h, after which 1.0 mL of conditioned medium was removed and added to 4.0 mL of chilled acetone (−20° C.). The resultant mixtures were incubated for 3 h at −20° C., after which the precipitated protein was pelleted by centrifugation at 10,000 g for 30 min. The supernatants were discarded and the pellets dried briefly in a fume hood. Pellets were stored at −20° C. prior to analysis with an immunoblot.

IRPs = assay: Electrophoretic mobility shift assay for IRE-binding by IRPs from treated cells; assay type: cell-based, human; details: treated MDA-MB-231 cells, 24 h, radiolabeled RNA ligand
Protocol: The resultant pellets (˜50 μL) were washed with PBS and then lysed using a protocol described previously.^41 Briefly, cell pellets were resuspended in 200 μL of cell lysis buffer, which was 20 mM Hepes-HCl buffer, pH 7.4, containing sodium pyrophosphate (10 mM), sodium fluoride (50 mM), β-glycerophosphate (50 mM), EDTA (5 mM), GTP (1 mM), sodium orthovanadate (1 mM), benzamidine hydrochloride (2 mM), Nonidet NP-40 (0.5% v/v), p-nitrophenyl p′-guanidinobenzoate-HCl (25 μg/mL), DTT (1 mM), leupeptin (40 μg/mL), pepstatin (4 μg/mL), SBTI (100 μg/mL), MG132 (10 μM), PMSF (200 μM), and BHT (5 μg/mL) by vortexing and lysed on ice by vortexing every few min. After 15 min, the lysates were centrifuged at 14,000 rpm and the supernatants aliquoted and stored at −80° C. until analysis by an electrophoretic mobility shift assay (EMSA).
EMSAs were performed and quantified essentially as described previously.^42 Briefly [^32P]-L-ferritin IRE (1 nM RNA, specific radioactivity ˜7,000 dpm/fmol) was incubated with lysate protein (2.5 μg as determined by the Bradford assay) in binding buffer for 10 min on ice. Heparin was added (to 0.5 mg/mL), and the reaction mixture was incubated for an additional 5 min on ice before separating bound and free RNA on a nondenaturing polyacrylamide gel at ambient temperature.

[7] = titration of 20 μM FeSO4, pH 7, mean (±SE) of three replicates

T1 sequence (P13674 18-534): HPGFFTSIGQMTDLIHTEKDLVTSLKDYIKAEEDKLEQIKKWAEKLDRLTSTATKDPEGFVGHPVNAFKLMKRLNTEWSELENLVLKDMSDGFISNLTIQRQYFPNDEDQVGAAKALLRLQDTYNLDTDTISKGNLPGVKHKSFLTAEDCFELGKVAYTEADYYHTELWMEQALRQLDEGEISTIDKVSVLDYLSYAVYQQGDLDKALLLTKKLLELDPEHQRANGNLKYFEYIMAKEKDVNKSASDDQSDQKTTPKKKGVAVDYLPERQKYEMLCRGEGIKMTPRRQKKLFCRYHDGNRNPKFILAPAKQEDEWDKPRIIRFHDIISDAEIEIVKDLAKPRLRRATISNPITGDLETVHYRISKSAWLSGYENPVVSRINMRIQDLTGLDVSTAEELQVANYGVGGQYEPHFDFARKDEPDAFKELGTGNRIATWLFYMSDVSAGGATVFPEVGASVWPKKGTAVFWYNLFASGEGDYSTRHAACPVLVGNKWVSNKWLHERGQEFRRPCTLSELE
T1 sequence (P07237 18-508 partner): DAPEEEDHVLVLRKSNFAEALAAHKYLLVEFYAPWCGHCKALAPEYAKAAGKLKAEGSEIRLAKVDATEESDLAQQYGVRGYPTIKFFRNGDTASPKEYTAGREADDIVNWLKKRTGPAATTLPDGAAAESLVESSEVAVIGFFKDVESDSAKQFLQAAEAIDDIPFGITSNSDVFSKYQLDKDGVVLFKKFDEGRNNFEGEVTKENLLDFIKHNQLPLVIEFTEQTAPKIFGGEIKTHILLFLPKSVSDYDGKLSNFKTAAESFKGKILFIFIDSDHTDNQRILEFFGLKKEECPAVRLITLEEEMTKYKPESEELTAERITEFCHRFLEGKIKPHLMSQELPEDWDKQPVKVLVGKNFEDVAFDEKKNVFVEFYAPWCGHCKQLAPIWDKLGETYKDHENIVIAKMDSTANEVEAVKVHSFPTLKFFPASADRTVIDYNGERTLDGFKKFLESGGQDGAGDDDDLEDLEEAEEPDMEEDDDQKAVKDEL

SMILES: c1ccc(-c2cccnn2)nc1 [pypyrid]
Heteroaryl pKa (ref.) [1]: 2.3 (49)
pKa [2]: < 3
EC50 [3, 7]: 124 ± 1 µM

SMILES: O=C(O)c1ccc(-c2cc(C(=O)O)[nH]n2)nc1 [pypyrDC, 2-(5-Carboxy-1H-pyrazol-3-yl)pyridine-5-carboxylic Acid]
Inhibition of catalytic activity of human CP4H1 in initial screen (human CP4H1): modest activation

SMILES: c1ccc(-c2cc[nH]n2)nc1 [pypyr, 2-(1H-pyrazol-3-yl)pyridine, reference compound]
Heteroaryl pKa (ref.) [1]: 2.5 (52)
pKa [2]: 4.1
EC50 [3, 7]: 2250 ± 100 µM

SMILES: Cn1c(C(=O)O)cnc1-c1ccc(C(=O)O)cn1 [NMe-pyimDC, 2-(5-Carboxy-1-methyl-1H-imidazol-2-yl)pyridine-5-carboxylic Acid]
Inhibition of catalytic activity of human CP4H1 in initial screen (human CP4H1): potency is less than that of pyimDC

SMILES: CCOC(=O)c1ccc(-c2ncc(C(=O)OCC)s2)nc1 [diethyl pythiDC, Ethyl 2-(5-ethoxycarbonylthiazol-2-yl)pyridine-5-carboxylate]
Level of TFR, HIF-1α, or ferritin (HEK293T cells): did not affect
LD50 (MDA-MB-231 cells [4]): > 500 µM
Concentration at which no iron-deficient phenotype is observed [5]: ≤ 500 µM
Iron-deficiency phenotype of treated cells [5]: normal
Levels of human CP4H1 (P4HA1) itself (P4HA1): did not appear to affect
Efficacy on collagen secretion compared with diethyl bipy55′DC (MDA-MB-231 cells [6]): indistinguishable
Level of secreted type I collagen (MDA-MB-231 cells [6]): reduced the level of secreted collagen significantly
RNA binding by IRPs (IRPs): did not

SMILES: CCOC(=O)c1ccc(-c2ccc(C(=O)OCC)cn2)nc1 [diethyl bipy55′DC, Diethyl 2,2′-bipyridine-5,5′-dicarboxylate, reference compound]
Iron deficient phenotype (HEK293T cells): did not cause iron deficiency
LD50 (MDA-MB-231 cells [4]): > 100 µM
Iron deficient phenotype [5]: did not cause iron deficiency

SMILES: CCOC(=O)c1ccnc(-c2cc(C(=O)OCC)ccn2)c1 [diethyl bipy44′DC, reference compound]
Iron deficient phenotype (HEK293T cells): distinct iron deficient phenotype
Iron deficient phenotype [5]: distinct iron deficient phenotype

SMILES: CCOC(=O)c1ccc(-c2cc(C(=O)OCC)ccn2)nc1 [diethyl bipy45′DC, Diethyl 2,2′-bipyridine-4,5′-dicarboxylate, reference compound]
Iron deficient phenotype (HEK293T cells): did not cause iron deficiency
Iron deficient phenotype [5]: did not cause iron deficiency

SMILES: O=C(O)c1ccc(-c2ccc(C(=O)O)nn2)nc1 [pypyridDC, 6-(5-Carboxypyridin-2-yl)pyridazine-3-carboxylic Acid]
Inhibition of catalytic activity of human CP4H1 in initial screen (human CP4H1): modest activation

SMILES: CCOC(=O)c1ccc(-c2ncc(C(=O)OCC)[nH]2)nc1 [diethyl pyimDC, Ethyl 2-(5-ethoxycarbonyl-1H-imidazol-2-yl)pyridine-5-carboxylate]
Level of TFR, HIF-1α, or ferritin (HEK293T cells): did not affect
LD50 (MDA-MB-231 cells [4]): > 1000 µM
Accumulation of TFR or HIF-1α ([5]; MDA-MB-231): without an associated accumulation
Concentration at which no iron-deficient phenotype is observed [5]: ≤ 56 µM
Iron-deficiency phenotype of treated cells [5]: intermediate phenotype
Ferritin levels ([5]; MDA-MB-231, above 56 μM): significant decrease
EC50 ([3]; Fe(II) 20 μM, highest concentration tested, not saturated): > 600 µM
Levels of human CP4H1 (P4HA1) itself (P4HA1): did not appear to affect
Efficacy on collagen secretion compared with diethyl bipy55′DC (MDA-MB-231 cells [6]): indistinguishable
Level of secreted type I collagen (MDA-MB-231 cells [6]): reduced the level of secreted collagen significantly
RNA binding by IRPs (IRPs): did not

More lines, main results first:

Level of TFR, HIF-1α, or ferritin (HEK293T cells): did not affect
pKa [2]: < 3
EC50 [3, 7]: 5100 ± 100 µM
SMILES: c1ccc(-c2nccs2)nc1 [pythi, 2-(Thiazol-2-yl)pyridine]
Heteroaryl pKa (ref.) [1]: 2.5 (53)

pKa [2]: < 3
EC50 [3, 7]: > 18000 µM
SMILES: c1ccc(-c2ncco2)nc1 [pyox, 2-(Oxazol-2-yl)pyridine]
Heteroaryl pKa (ref.) [1]: 0.8 (54)

Level of TFR, HIF-1α, or ferritin (HEK293T cells): did not affect
pKa [2]: 5.4
EC50 [3, 7]: 900 ± 30 µM
SMILES: c1ccc(-c2ncc[nH]2)nc1 [pyim, 2-(1H-Imidazol-2-yl)pyridine, reference compound]
Heteroaryl pKa (ref.) [1]: 7.1 (51)

pKa [2]: < 3
EC50 [3, 7]: 400 ± 7 µM
SMILES: c1ccc(-c2cnccn2)nc1 [pypyraz, 2-(Pyridin-2-yl)pyrazine]
Heteroaryl pKa (ref.) [1]: 0.8 (50)
